Where two headings read alike, the source gives them in different places. Where no end group is shown, it is not given here.
Legend:
[1] = system: Sphingomonas paucimobilis (SP); assay type: cell-based
Experimental: (§1) All of the bacterial species were grown overnight at 37 °C in LB broth. 10^7 CFU/mL of cells were resuspended in fresh culture and grown until the mid log phase. , The bacterial cells were adjusted to a concentration of 5 × 10^5 CFU/mL to quantify the MIC. Equal volumes of the respective bacterial cultures were incubated with the serially diluted peptides in 96-well microtiter plate and incubated overnight at 37 °C in ambient air. Microorganisms without peptides were treated as the positive control, while uninoculated broth was used as the negative control. The MIC was taken as the lowest peptide concentration at which observable bacteria growth was inhibited, as measured by a microplate reader (Biotek Synergy H1 microplate reader). Experiments were performed in triplicates, and the mean MIC values were determined. A similar study was performed to understand the effect of peptide purity, i.e., ranging from 70 to 95%, on the peptide MIC.

[2] = system: Bacillus licheniformis (BL) ATCC 14580; assay type: cell-based
Experimental: as §1

[3] = system: Kocuria rosea (KR) ATCC 186; assay type: cell-based
Experimental: as §1

[4] = system: Sphingomonas paucimobilis (SP); test: Effectiveness of peptides on spiked fuel samples (aqueous layer); assay type: cell-based; design: key: (+) =1 (implying peptide activity in fuel environment); (X) = 0 (implying no activity in the desired range, indicated by microbial proliferation); Fuel x = -1(implying no activity in fuel environment); settings: initial screening in spiked fuel
Experimental: (§2) To study the partitioning of microbes in fuel tanks, filter-sterilized fuel was mixed with BH medium in a 1:1 (v/v) ratio. The inoculum was added to the aqueous phase at the bottom to simulate growth in the aqueous layer of fuel tanks and incubated aerobically at 30 °C for 30 days. Visible growth was assessed, and aliquots from both the aqueous and fuel phases were plated on nutrient agar plates to evaluate microbial growth. Peptides were initially added to the aqueous layer of microbially spiked fuel samples for screening the effectiveness in the fuel environment. The study was further extended over a longer duration, and incubated under aerobic conditions at 30 °C for 30 days. Microbial growth was monitored at regular intervals by plating aliquots from the aqueous layer on the nutrient agar plates.
(§3) The engineered peptides were administered at their respective MICs to the aqueous layer of simulated fuel samples, and samples from both the aqueous and solvent (fuel) layers were removed at intervals of 7, 14, 21, and 30 days and plated on LBA plates to assess cell viability (Table S5).

[5] = system: Dermacoccus nishinomiyaensis (DN); test: as above; assay type: cell-based; design: key: (+) =1 (implying peptide activity in fuel environment); (X) = 0 (implying no activity in the desired range, indicated by microbial proliferation); Fuel x = -1(implying no activity in fuel environment); settings: initial screening in spiked fuel
Experimental: as §2, §3

Roseomonas mucosa (RM) = test: as above; assay type: cell-based; design: key: (+) =1 (implying peptide activity in fuel environment); (X) = 0 (implying no activity in the desired range, indicated by microbial proliferation); Fuel x = -1(implying no activity in fuel environment); settings: initial screening in spiked fuel
Experimental: as §2, §3

[6] = system: Macrococcus caseolyticus (MC); test: as above; assay type: cell-based; design: key: (+) =1 (implying peptide activity in fuel environment); (X) = 0 (implying no activity in the desired range, indicated by microbial proliferation); Fuel x = -1(implying no activity in fuel environment); settings: initial screening in spiked fuel
Experimental: as §2, §3

[7] = system: Bacillus licheniformis (BL); test: as above; assay type: cell-based; design: key: (+) =1 (implying peptide activity in fuel environment); (X) = 0 (implying no activity in the desired range, indicated by microbial proliferation); Fuel x = -1(implying no activity in fuel environment); settings: initial screening in spiked fuel
Experimental: as §2, §3

Hormoconis resinae (HR) = test: as above; assay type: cell-based; design: key: (+) =1 (implying peptide activity in fuel environment); (X) = 0 (implying no activity in the desired range, indicated by microbial proliferation); Fuel x = -1(implying no activity in fuel environment); settings: initial screening in spiked fuel
Experimental: as §2, §3

[8] = system: Micrococcus yunnanensis (MY); test: as above; assay type: cell-based; design: key: (+) =1 (implying peptide activity in fuel environment); (X) = 0 (implying no activity in the desired range, indicated by microbial proliferation); Fuel x = -1(implying no activity in fuel environment); settings: initial screening in spiked fuel
Experimental: as §2, §3

Kocuria rosea (KR) = test: as above; assay type: cell-based; design: key: (+) =1 (implying peptide activity in fuel environment); (X) = 0 (implying no activity in the desired range, indicated by microbial proliferation); Fuel x = -1(implying no activity in fuel environment); settings: initial screening in spiked fuel
Experimental: as §2, §3

[9] = system: Pseudomonas aeruginosa (PA); test: as above; assay type: cell-based; design: key: (+) =1 (implying peptide activity in fuel environment); (X) = 0 (implying no activity in the desired range, indicated by microbial proliferation); Fuel x = -1(implying no activity in fuel environment); settings: initial screening in spiked fuel
Experimental: as §2, §3

[10] = HPLC retention time as a function of peptide hydrophobicity; assay type: physicochemical; settings: chromatographic, Polaris 5 C18-A reverse phase, 0.1% TFA water / 0.1% TFA acetonitrile gradient, 30 min, 300 μM peptide
Experimental: The purity of the peptides was ascertained by high-performance liquid chromatography (HPLC) using Polaris 5 C18-A […] × 4.6 mm reverse phase Zorbax columns from Agilent Technologies. The buffer system contained 0.1% (v/v) TFA in 100% water and 0.1% (v/v) TFA in 100% acetonitrile. Each peptide sample contained 300 μM peptides dissolved in an acetonitrile–water (1:4) mixture. A constant gradient of the two solvent systems was used to generate the chromatogram for 30 min after sample injection.

[11] = system: microbial clusters MY, KR, DN, MC, BL, RM, SP, PA, HR; test: Broad-spectrum activity score (in-house scoring matrix); settings: sum over 9 microbial clusters: (+) = 1, (X) = 0, Fuel x = -1
Experimental: Table S4. Summarizing the broad-spectrum activity of the peptides, considering the MIC value/ efficacy to control microbial growth upon fuel co-incubation
Peptides Bacterial clusters Fungal
Actinobacteria Firmicutes Proteobacteria Asco- […]
Peptides identified based on the scoring matrix, where (+) =1 (implying peptide activity in fuel environment); (X) = 0 (implying no activity in the desired range, indicated by microbial proliferation); Fuel x = -1(implying no activity in fuel environment).
Clearly, P17 is the best performing peptide in vitro across diverse microbial phyla as well as when incubated in the fuel environment. Based on the activity of the selected peptides, the best

[12] = system: Macrococcus caseolyticus (MC) ATCC 13548; assay type: cell-based
Experimental: as §1

[13] = system: Pseudomonas aeruginosa (PA) ATCC 39327; assay type: cell-based
Experimental: as §1

[14] = system: Dermacoccus nishinomiyaensis (DN) ATCC 29093; assay type: cell-based
Experimental: as §1

[15] = system: Micrococcus yunnanensis (MY) ATCC 12698; assay type: cell-based
Experimental: as §1

[16] = LB broth, 5 × 10^5 CFU/mL, overnight 37 °C, mean of triplicates, “–” = no detectable activity

CC(C)C[C@H](NC(=O)[C@@H](N)Cc1ccc(O)cc1)C(=O)N1CCC[C@H]1C(=O)N[C@@H](Cc1c[nH]c2ccccc12)C(=O)N[C@@H](CCCCN)C(=O)N[C@@H](Cc1c[nH]c2ccccc12)C(=O)N1CCC[C@H]1C(=O)N[C@@H](Cc1c[nH]c2ccccc12)C(=O)N[C@@H](Cc1c[nH]c2ccccc12)C(=O)N1CCC[C@H]1C(=O)N[C@@H](Cc1c[nH]c2ccccc12)C(=O)N[C@@H](CCCNC(=N)N)C(=O)N[C@@H](CCCNC(=N)N)C(=O)O [P14]
MIC [1]: 0.9 µM | MIC ([2]; ATCC 14580): 3.9 µM | MIC [3]: 0.9 µM | activity considering MIC value/efficacy upon fuel co-incubation [4]: + | activity considering MIC value/efficacy upon fuel co-incubation [5]: X | activity considering MIC value/efficacy upon fuel co-incubation (Roseomonas mucosa (RM)): X | activity considering MIC value/efficacy upon fuel co-incubation [6]: X | activity considering MIC value/efficacy upon fuel co-incubation [7]: + | activity considering MIC value/efficacy upon fuel co-incubation (Hormoconis resinae (HR)): X | activity considering MIC value/efficacy upon fuel co-incubation [8]: X | activity considering MIC value/efficacy upon fuel co-incubation (Kocuria rosea (KR)): Fuel x | activity considering MIC value/efficacy upon fuel co-incubation [9]: X | R t, retention time of peptide on HPLC column as a function of peptide hydrophobicity [10]: 12.279 min | Score [11]: 1

CC[C@H](C)[C@H](N)C(=O)N[C@@H](CC(C)C)C(=O)N[C@@H](Cc1c[nH]c2ccccc12)C(=O)N[C@@H](Cc1c[nH]c2ccccc12)C(=O)N[C@@H](CCCCN)C(=O)N[C@@H](Cc1c[nH]c2ccccc12)C(=O)N1CCC[C@H]1C(=O)N[C@@H](Cc1c[nH]c2ccccc12)C(=O)N[C@@H](Cc1c[nH]c2ccccc12)C(=O)N1CCC[C@H]1C(=O)N[C@@H](Cc1c[nH]c2ccccc12)C(=O)N[C@@H](CCCNC(=N)N)C(=O)N[C@@H](CCCNC(=N)N)C(=O)O [P15]
MIC [12]: 0.9 µM | MIC [1]: 0.9 µM | MIC ([2]; ATCC 14580): 0.9 µM | activity considering MIC value/efficacy upon fuel co-incubation [4]: + | activity considering MIC value/efficacy upon fuel co-incubation [5]: X | activity considering MIC value/efficacy upon fuel co-incubation (Roseomonas mucosa (RM)): X | activity considering MIC value/efficacy upon fuel co-incubation [6]: + | activity considering MIC value/efficacy upon fuel co-incubation [7]: + | activity considering MIC value/efficacy upon fuel co-incubation (Hormoconis resinae (HR)): X | activity considering MIC value/efficacy upon fuel co-incubation [8]: X | activity considering MIC value/efficacy upon fuel co-incubation (Kocuria rosea (KR)): X | activity considering MIC value/efficacy upon fuel co-incubation [9]: X | R t, retention time of peptide on HPLC column as a function of peptide hydrophobicity [10]: 14.327 min | Score [11]: 3

ILPWRWPWWPWRR [P10]
MIC [1, 16]: 7.8 µM | MIC [13, 16]: 31.25 µM | MIC [2, 16]: 3.9 µM | activity considering MIC value/efficacy upon fuel co-incubation [4]: X | activity considering MIC value/efficacy upon fuel co-incubation [5]: X | activity considering MIC value/efficacy upon fuel co-incubation (Roseomonas mucosa (RM)): X | activity considering MIC value/efficacy upon fuel co-incubation [6]: X | activity considering MIC value/efficacy upon fuel co-incubation [7]: + | activity considering MIC value/efficacy upon fuel co-incubation (Hormoconis resinae (HR)): X | activity considering MIC value/efficacy upon fuel co-incubation [8]: X | activity considering MIC value/efficacy upon fuel co-incubation (Kocuria rosea (KR)): X | activity considering MIC value/efficacy upon fuel co-incubation [9]: X | R t, retention time of peptide on HPLC column as a function of peptide hydrophobicity [10]: 12.417 min | Score [11]: 1

CC[C@H](C)[C@H](N)C(=O)N[C@@H](CC(C)C)C(=O)N[C@H](C(=O)N[C@@H](Cc1c[nH]c2ccccc12)C(=O)N[C@@H](CCCCN)C(=O)N[C@@H](Cc1c[nH]c2ccccc12)C(=O)N1CCC[C@H]1C(=O)N[C@@H](Cc1c[nH]c2ccccc12)C(=O)N[C@@H](Cc1c[nH]c2ccccc12)C(=O)N1CCC[C@H]1C(=O)N[C@@H](Cc1c[nH]c2ccccc12)C(=O)N[C@@H](CCCNC(=N)N)C(=O)N[C@@H](CCCNC(=N)N)C(=O)O)C(C)C [P12]
MIC [12]: 0.9 µM | MIC [1]: 0.9 µM | MIC ([13]; ATCC 39327): 7.8 µM | MIC ([2]; ATCC 14580): 3.9 µM | MIC [14]: 0.9 µM | MIC [15]: 0.9 µM | activity considering MIC value/efficacy upon fuel co-incubation [4]: + | activity considering MIC value/efficacy upon fuel co-incubation [5]: + | activity considering MIC value/efficacy upon fuel co-incubation (Roseomonas mucosa (RM)): X | activity considering MIC value/efficacy upon fuel co-incubation [6]: + | activity considering MIC value/efficacy upon fuel co-incubation [7]: + | activity considering MIC value/efficacy upon fuel co-incubation (Hormoconis resinae (HR)): X | activity considering MIC value/efficacy upon fuel co-incubation [8]: X | activity considering MIC value/efficacy upon fuel co-incubation (Kocuria rosea (KR)): X | activity considering MIC value/efficacy upon fuel co-incubation [9]: X | R t, retention time of peptide on HPLC column as a function of peptide hydrophobicity [10]: 12.903 min | Score [11]: 4

ILPWKFPWWPWRR [P9]
MIC [12]: 0.9 µM | MIC [1]: 7.8 µM | MIC ([13]; ATCC 39327): 31.25 µM | MIC ([2]; ATCC 14580): 3.9 µM | MIC [14]: 0.9 µM | MIC [15]: 0.9 µM | activity considering MIC value/efficacy upon fuel co-incubation [4]: X | activity considering MIC value/efficacy upon fuel co-incubation [5]: + | activity considering MIC value/efficacy upon fuel co-incubation (Roseomonas mucosa (RM)): X | activity considering MIC value/efficacy upon fuel co-incubation [6]: + | activity considering MIC value/efficacy upon fuel co-incubation [7]: + | activity considering MIC value/efficacy upon fuel co-incubation (Hormoconis resinae (HR)): X | activity considering MIC value/efficacy upon fuel co-incubation [8]: + | activity considering MIC value/efficacy upon fuel co-incubation (Kocuria rosea (KR)): X | activity considering MIC value/efficacy upon fuel co-incubation [9]: X | R t, retention time of peptide on HPLC column as a function of peptide hydrophobicity [10]: 12.610 min | Score [11]: 4
